Measurements taken from paper PMC12157728, “Green and Efficient Synthetic Protocol for 1,3,5-Triazine Derivatives with Anticancer Potential Against Colorectal Cancer” (Molecules, 2025).
Like-named read-outs stand apart in the source and are kept apart here.

Columns and labels:
SW620 = assay: MTS cytotoxicity assay, SW620 colorectal cancer cells; format: cell-based, human; conditions: for IC50: Homo sapiens, SW-620, MTS, 24 h incubation, n = 3, >100 = no detectable effect at highest concentration, * = IC50 could not be determined (high variability or no consistent dose-response), read-out: Cytotoxicity IC50 ± SD, SW620
Protocol: (§1) The human colorectal cancer cell lines SW620, SW480 were obtained from the American Type Culture Collection (ATCC). Both cell lines were cultured in Dulbecco’s Modified Eagle Medium (DMEM) (Capricorn Scientific GmbH, Manassas, USA), which was supplemented with 10% fetal bovine serum (FBS) and 50 µg/mL of gentamicin. Cells were incubated at 37 °C in a humidified atmosphere containing 5% CO₂. The cultures were passaged approximately every three days upon reaching confluence using a 0.25% trypsin-EDTA solution, at a ratio of approximately 1:3 to 1:4. For the MTS assay, cells were seeded at a density of 10,000 cells per well in 96-well plates. After 24 h, compounds were added at five concentrations ([…]), and cells were incubated for an additional 24 h. Cytotoxicity was assessed using the CellTiter 96® AQueous One Solution Cell Proliferation Assay (Promega), following the manufacturer’s instructions. Absorbance was measured at 490 nm using a microplate reader.
(§2) The IC₅₀ values were determined relative to the untreated control cells (without test compounds). All experiments were performed in triplicate (n = 3). Compounds for which IC₅₀ values could not be reliably determined were excluded from quantitative analysis. […] Such compounds are reported as ‘>100µM’ or ‘>100µM*’, respectively, in the results.

[1] = Lipophilicity by gradient RP-HPLC (C18, pH 7.4): CHI, chrom logD, PFI; format: physicochemical; set-up: key to PFI (Property Forecast Index): PFI = Chrom logD7.4 + number of aromatic rings; conditions: for chromatographic logD: C18 Hypersil GOLD reversed-phase HPLC column, pH 7.4, C18 column; for chromatographic logD / chrom logD (RP-HPLC): pH 7.4, Chrom logD = 0.0525 × CHI − 1.467; for CHI C18: C18 at pH 7.4; for chrom logD (RP-HPLC): C18 column; for PFI (Property Forecast Index): PFI = Chrom logD7.4 + #Ar, threshold 7
From the text: (§3) All chromatographic experiments adhered to the protocols established by Valko and colleagues, which were implemented in our laboratory. Essentially, biochromatography facilitated the assessment of lipophilicity and phospholipid affinity, represented as Chromatographic Hydrophobicity Index (CHI) values, through a gradient elution experiment, comparing results with model substances. The Prominence-1 LC-2030C 3D HPLC system, operated via LabSolution software (v6.81, Kyoto, Japan), was utilized for all chromatographic analyses. Throughout the research, distinct chromatographic columns were employed: IAM.PC.DD2 (10 × 4.6 mm × 10.0 µm with a guard column; Regis Technologies; USA) and C18 Hypersil GOLD^TM (100 mm × 4.6 mm; 5.0 µm with a guard column; Thermo Scientific, Waltham, MA, USA). Each column was paired with guard columns featuring the same stationary phases as the main column. Mobile phase A consisted of a water solution of 50 mM ammonium acetate (VWR International, Leuven, Belgium), adjusted to physiological pH 7.4 using concentrated ammonia solution (Avantor Performance Materials Poland S.A., Gliwice, Poland). The mobile phase was prepared with ultrapure water from a Milli-Q water purification system (Merck Millipore, Darmstadt, Germany), achieving a resistivity of 18.2 MΩ. For phospholipid binding assessments, mobile phase B was HPLC grade acetonitrile (Chempur, Piekary Śląskie, Poland), with a linear gradient from 0 to 85% B over 5.25 min, then maintained at 85% ACN for 0.5 min. The mobile phase was delivered at a flow rate of 1.5 mL/min, with the IAM.PC.DD2 column temperature held steady at 30 °C. For lipophilicity evaluations, the solvents and flow rate mirrored those used in IAM chromatography. The C18 Hypersil GOLD^TM column was kept at 40 °C. Similarly, a linear gradient was applied from 0 to 5.25 min, but, in this instance, it ranged from 2 to 98% ACN, with the maximum phase B concentration sustained for 2.5 min. Dimethyl sulfoxide (Avantor Performance Materials Poland S.A., Poland) was employed to dissolve the target solutes, forming a solution with a concentration of 200 µg/mL. Detection occurred in the UV region at a wavelength of 190–300 nm. The injection volume was 5 μL, and each compound was analyzed in duplicate, with retention time variation below 0.5%. Retention times for the studied molecules and reference standards are detailed in the Supplementary Material, Tables S1 and S2.
Experimentally determined CHI values were converted to chrom logD using the following equation [53]:Chrom logD = 0.0525 × CHI − 1.467(1)
In addition, the Property Forecast Index (PFI), the sum of the number of aromatic rings(#Ar), and a lipophilicity measure are used to reflect the principle of simultaneous minimization of lipophilicity and aromaticity, which supports the selection of oral clinical candidates in GKS [47].PFI = Chrom logD7.4 + #Ar(2)

[2] = Phospholipid affinity by IAM-HPLC (IAM.PC.DD2 column); format: physicochemical; conditions: pH 7.4, phospholipidosis threshold >50
From the text: as §3

SW480 = assay: MTS cytotoxicity assay, SW480 colorectal cancer cells; format: cell-based, human; conditions: for IC50: MTS, 24 h incubation, n = 3, >100 = no detectable effect at highest concentration, * = IC50 could not be determined (high variability or no consistent dose-response), read-out: Cytotoxicity IC50 ± SD, SW480
Protocol: as §1, §2

chromatographic logD [1] | CHI C18 [1] | chrom logD (RP-HPLC) [1] | PFI (Property Forecast Index) [1] | Structure (SMILES) | IC50 (SW620) [µM] | CHI IAM (IAM-HPLC) [2] | Cytotoxic activity in words, SW480 (SW480) | IC50 (SW480; Homo sapiens) [µM] | Cytotoxic activity in words, SW620 (SW620) | IC50 (SW480) [µM]
3.95 |  | 3.947 |  | Cl.Clc1ccccc1Nc1nc(NCCc2ccccc2)nc(N2CCOCC2)n1 [Compound 3, N^2-(2-chlorophenyl)-6-morpholino-N^4-phenethyl-1,3,5-triazine-2,4-diamine hydrochloride] | > 100 | 55.97 | limited cytotoxic potential | > 100 | limited cytotoxic potential | 
3.95 | 103.1 | 3.947 | 6.95 | Cl.Clc1ccccc1Nc1nc(NCc2ccccc2)nc(N2CCOCC2)n1 [Compound 5, N^2-benzyl-N^4-(2-chlorophenyl)-6-morpholino-1,3,5-triazine-2,4-diamine hydrochloride] | 32.8 ± 23.4 | 46.45 |  | 43.1 |  | 43.4 ± 12.2
 |  |  |  | O=c1[nH]cc(F)c(=O)[nH]1 [5-fluorouracil, reference compound] | 21.7 ± 2.75 |  |  | 15.5 ± 7.83 |  | 
4.1 | 106 | 4.098 | 7.10 | Cl.Clc1ccccc1Nc1nc(Nc2ccccc2)nc(N2CCOCC2)n1 [Compound 4, N^2-(2-chlorophenyl)-6-morpholino-N^4-phenyl-1,3,5-triazine-2,4-diamine hydrochloride] | 36.1 ± 46.5 | 46.34 |  | > 100 |  | 
4.44 | 112.6 | 4.443 | 7.44 | Cl.Fc1ccc(N2CCN(CCNc3nc(Nc4ccccc4Cl)nc(N4CCOCC4)n3)CC2)cc1 [Compound 7, N^2-(2-chlorophenyl)-N^4-(2-(4-(4-fluorophenyl)piperazin-1-yl)ethyl)-6-morpholino-1,3,5-triazine-2,4-diamine hydrochloride] |  | 49.59 | limited cytotoxic potential | > 100 | limited cytotoxic potential | 
4.71 | 117.6 | 4.706 | 7.71 | Cl.Clc1ccccc1Nc1nc(NCCCc2ccccc2)nc(N2CCOCC2)n1 [Compound 6, N^2-(2-chlorophenyl)-6-morpholino-N^4-(3-phenylpropyl)-1,3,5-triazine-2,4-diamine hydrochloride] | > 100 | 51.63 | limited cytotoxic potential | > 100 | limited cytotoxic potential | 
4.15 | 107 | 4.148 | 7.15 | Cl.Clc1ccccc1Nc1nc(N2CCOCC2)nc(N2CCN(c3ccccc3)CC2)n1 [Compound 8, N-(2-chlorophenyl)-4-morpholino-6-(4-phenylpiperazin-1-yl)-1,3,5-triazin-2-amine hydrochloride] |  | 47.79 |  | 20.6 ± 24.9 |  | 
3.94 | 102.9 | 3.936 | 6.94 | Cl.Clc1ccccc1Nc1nc(NCCNc2ccccc2)nc(N2CCOCC2)n1 [Compound 10, N^2-(2-chlorophenyl)-6-morpholino-N^4-(2-(phenylamino)ethyl)-1,3,5-triazine-2,4-diamine hydrochloride] |  | 44.55 | limited cytotoxic potential | > 100 | limited cytotoxic potential | 
4.23 | 108.4 | 4.226 | 7.23 | Cl.Clc1ccccc1Nc1nc(N2CCOCC2)nc(N2CCN(c3nsc4ccccc34)CC2)n1 [Compound 9, 4-(4-(benzo[d]isothiazol-3-yl)piperazin-1-yl)-N-(2-chlorophenyl)-6-morpholino-1,3,5-triazin-2-amine hydrochloride] | 22.1 ± 17.3 | 48.02 | inactive | > 100 | some activity | 

Structure (SMILES) | chromatographic logD [1] | CHI C18 [1] | chrom logD (RP-HPLC) [1] | PFI (Property Forecast Index) [1] | IC50 (SW620) [µM] | CHI IAM (IAM-HPLC) [2] | Cytotoxic activity in words, SW480 (SW480) | IC50 (SW480; Homo sapiens) [µM] | Cytotoxic activity in words, SW620 (SW620) | IC50 (SW480) [µM]
Cl.Clc1ccccc1Nc1nc(NCCOc2ccccc2)nc(N2CCOCC2)n1 [Compound 11, N^2-(2-chlorophenyl)-6-morpholino-N^4-(2-phenoxyethyl)-1,3,5-triazine-2,4-diamine hydrochloride] | 4.01 | 104.4 | 4.012 | 7.01 | 5.85 ± 14.3 | 45.92 |  |  |  | 
